In patent US20250127857A1, “A COMPOSITION COMPRISING IL-36 AND/OR IL-18 FOR USE IN TREATING OCULAR DISORDERS” (THE PROVOST, FELLOWS, FOUNDATION SCHOLARS, & THE OTHER …, priority 2021, published 2025):

Tested on: VEGF
Assay: VEGF secretion by primary human foetal RPE (hfRPE) cells
Type: cell-based
Conditions: IL-18 1000 ng/ml, 1-72 hours
Experimental: FIG. 14 illustrates IL-18 can inhibit VEGF secretion in vivo and in vitro, wherein JR5558 mice at 3 weeks (A) were injected (i.p.) with saline (0 μg/kg) or IL-18 (100 μg/kg) on 4 consecutive days (day 1-4), wherein retinas were isolated on day 8 and VEGF concentration in protein lysates was determined using an appropriate ELISA, wherein data are presented as mean±SEM (n=4-5 animals per each treatment group) and expressed as pg of VEGF per mg of total retinal protein as measured by the BCA assay, *p<0.05 by one-way ANOVA with Tukey post test compared to saline controls; (B) is primary human foetal RPE (hfRPE) cells were treated with control medium (0 ng/ml) or a single dose of IL-18 (1000 ng/ml) for 1 to 72 hours, wherein VEGF concentration in the cell-free supernatants was measured at each time point, wherein rate of VEGF secretion was calculated from the slope of linear regression of VEGF concentration (pg/ml) against time (hours) (C), wherein data are presented as mean±SEM and represent a single experiment carried out in triplicate *p<0.05, ***p<0.001 by Student's t test compared to control at each time point;

## IL-18: recombinant human IL-18 (SB-485232; GSK)
  VEGF concentration in cell-free supernatants: decreased VEGF concentration at (almost) all time points examined
  overall rate of VEGF secretion: significantly slowed down the overall rate of VEGF secretion
